Results taken from US20250057951A1, “DISCERNIBLE CELL SURFACE PROTEIN VARIANTS OF CD117 FOR USE IN CELL THERAPY” (UNIVERSITÄT BASEL, priority 2021, published 2025).
Substitutions are numbered along the chain they refer to. Names and notes keep the numbering of the source. “Also recorded” adds a separate entry of the source. Values belong to the molecule of their own block, whether it stands above or below them.

How the values were obtained:
CD117 = test: Gene editing of CD117 in TF-1 cells, loss of SR-1 binding by FACS; format: cell-based, human; details: FACS 7 days after electroporation with Cas9, crRNA/tracrRNA or sgRNA and HDR template
Procedure: Gene editing of CD117 was performed in TF-1 cells using HDR. 12 different crRNAs were tested, six of them targeting amino acid residue E73 (Table 3), and six of them targeting amino acid residues 120-123 (Table 3).
Binding of antibody SR-1 to TF-1 cells was measured by FACS 7 days after electroporation with Cas9 protein, crRNA/tracrRNA or sgRNA and HDR template (Table 4).

antibody Refmab #1 [1] = test: Octet titration, steady state KD of CD117 D1-2-3 variants to Refmab #1; format: binding; details: 7 concentrations 2000-5 nM; steady state; two individual experiments
Procedure: To further characterize binding of Refmab #1 to CD117 D1-2-3 variants E73K, E73L, E73R, E73Y, D121H, D121K, S123K and S123F, the analytes were titrated at 7 different concentrations (from 2000 nM to 5 nM). Antibody Refmab #1 was captured by AHC biosensors for 300 s at 0.5 to 1 μg/mL. Association and dissociation to Refmab #1 was extended to 600 s and 1000 s, respectively. Steady state analysis was performed.

TF-1 cells = test: SCF-dependent proliferation, SCF titration on TF-1 cells with CD117 variants (CellTiter-Glo); format: cell-based, human
Procedure: In another experiment, SCF-dependent proliferation of variants E73K, E73Y, D121K, S123F and S123K was compared against wildtype CD117. TF-1 cells were seeded at a cell concentration of 150 000 cells/ml in sterile, white cell culture treated plates with transparent bottom in RPMI+GlutaMax+10% FCS. Cells were treated with a titration of SCF. After 3 days of incubation a CellTiter-Glo 2.0 assay (Promega) was performed, luminescence was read in a luminometer (Envision plate reader) and EC50's was determined. Two different experiments with triplicates in each experiment were performed.

Refmab #1 = Refmab #1 titration on engineered TF-1 cells (flow cytometry); format: binding; details: 5-0.00015 μg/mL antibody; 4° C.
Procedure: Binding of Refmab #1 was assessed in a flow cytometry assay. TF-1 cells were seeded at a cell concentration of 1,000,000 cells/ml in FACS Buffer (PBS+2% FCS+1 mM EDTA). After a Fc blocking using 1:20 diluted TruStain (BioLegend, #422302) in FACS buffer for 15 minutes at 4° C., cells were washed twice with FACS buffer. Subsequently, a SR-1 titration was added to the cells using 5-0.00015 μg/mL antibody for 30 minutes at 4° C. on a plate shaker. Cells were washed twice with FACS buffer and a secondary labelled antibody (IgG (H+L) Cross-Adsorbed Goat anti-Human, Alexa Fluor® 488, Invitrogen, A11013) was added to the cells for 30 minutes at 4° C. on a plate shaker. Cells were washed twice with FACS buffer, before adding 1:100 diluted solution of 7AAD staining (cell viability) in FACS buffer for a couple of minutes and analyzing the cells using the Novocyte Quanteon (Agilent).

Refmab #3 = test: Octet: binding of CD117 variants to Refmab #3; details: qualitative Octet analysis
Procedure: (§1) A more sophisticated analysis of binding to the elected variants was performed with antibody Refmab #1. Binding of Refmab #1 to wt and variants (analyte) was measured in an Octet system RED96e or R8 at 25° C. with shaking at 1,000 rpm using 1× kinetic buffer (Sartorius, PN: 18-1105). First, the elected variants were screened for their ability to bind Refmab #1 using three different concentrations of analytes. Antibody Refmab #1 was captured by Anti-Human Fc capture biosensor (AHC) (Sartorius, PN: 18-5060) for 300 s at 0.5 to 1 μg/mL. As an analyte, human CD117 wt and variants, containing only domains 1, 2 and 3 (CD117 D1-2-3), was titrated at 500 nM, 50 nM and 5 nM. Association and dissociation of the analyte to Refmab #1 was monitored for 300 s and 900 s, respectively. Reference subtraction was performed against buffer only wells. AHC tips were regenerated using 10 mM Gly-HCl pH 1.7. Data were analyzed using the Octet Data Analysis software HT 12.0. Data were fitted (when possible) to a 1:1 binding model. Kinetic rates ka and […] globally fitted. Binding level of the elected variants were compared to wild type and are shown as percent in FIG. 7. For this qualitative analysis, the binding level of the top analyte concentration at end of the association step was used.
A similar experiment to that in Example 7 was performed, but utilizing Refmab's #2 and #3.

Biotinylated Avitag-hSCF = molecular target: T1, Biotinylated Avitag-hSCF (human, UniProt P21583 26-190, limits assumed, biotinylated Avitag); test: BLI (Octet), steady state: biotinylated SCF on streptavidin biosensor, CD117 D1-2-3 variant as analyte; KD relative to WT
T1 construct: Bought reagent; also called hSCF (Acros Biosystems SCF-H82E1)
Procedure: Association was monitored for 300 s and dissociation for 600 s. […] Reference subtraction was performed against buffer only wells. Biosensors were not regenerated and a new set of SA biosensors was used for each analyte. Data were analyzed using the Octet Data Analysis software HT 12.0. Steady state data analysis was performed due to the fast on/off nature of the interaction.

antibody Refmab #1 [2] = test: Octet screen: binding of CD117 D1-2-3 variants to captured Refmab #1; details: nm shift at end of association, top analyte concentration (500 nM)
Procedure: as §1

SCF = molecular target: T2, SCF (Homo sapiens, UniProt P21583); test: Octet: binding of CD117 D1-2-3 variants to SCF; details: CD117 D1-2-3 constructs; for KD increase of SCF binding compared to wild type CD117: steady state
T2 construct: purchased Acros Biosystems SCF-H82E1
Procedure: SCF binding is one function of CD117. SCF binding is important for the transmission of functional signals by CD117. Binding of the elected variants to SCF was measured on an Octet system RED96e or R8 at 25° C. with shaking at 1000 rpm using 1× Kinetic Buffer (Sartorius, PN: 18-1105). […] Domain 1, 2, 3 comprise the binding site for SCF. Domains 4 and 5 were used as a negative, non-binding control.
CD117 D1-2-3 wt and variants thereof are titrated with different concentrations from 1000 to 5 nM. Association was monitored for 300 s and dissociation for 600 s. Binding to human CD117 domain 4 and 5 (CD117 D4-5) was performed under the same conditions as non-binding control. Reference subtraction was performed against buffer only wells. Biosensors were not regenerated and a new set of SA biosensors was used for each analyte. Data were analyzed using the Octet Data Analysis software HT 12.0. Steady state data analysis was performed due to the fast on/off nature of the interaction.

[3] = titration of SCF, 3 days, TF-1 cells with the CD117 variant

T2 sequence (P21583 26-273): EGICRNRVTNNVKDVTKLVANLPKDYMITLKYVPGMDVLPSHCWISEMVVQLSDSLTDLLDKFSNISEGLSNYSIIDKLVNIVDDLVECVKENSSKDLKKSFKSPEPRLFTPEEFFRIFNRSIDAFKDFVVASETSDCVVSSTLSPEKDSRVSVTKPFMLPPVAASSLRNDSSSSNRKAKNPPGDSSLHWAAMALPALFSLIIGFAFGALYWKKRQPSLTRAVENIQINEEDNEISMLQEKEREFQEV
Chain of Refmab #3 (as listed by the source): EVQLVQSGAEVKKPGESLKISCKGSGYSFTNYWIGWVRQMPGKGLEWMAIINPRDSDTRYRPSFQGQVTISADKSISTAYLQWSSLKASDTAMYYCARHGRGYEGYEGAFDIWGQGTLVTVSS
Chain of Refmab #3 (as listed by the source): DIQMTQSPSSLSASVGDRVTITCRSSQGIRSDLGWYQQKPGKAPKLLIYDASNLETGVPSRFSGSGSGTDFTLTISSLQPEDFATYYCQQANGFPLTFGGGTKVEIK
Chain of antibody Refmab #1 (as listed by the source): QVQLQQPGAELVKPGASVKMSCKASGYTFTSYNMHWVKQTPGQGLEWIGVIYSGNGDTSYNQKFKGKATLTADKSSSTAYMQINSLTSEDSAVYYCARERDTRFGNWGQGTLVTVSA
Chain of antibody Refmab #1 (as listed by the source): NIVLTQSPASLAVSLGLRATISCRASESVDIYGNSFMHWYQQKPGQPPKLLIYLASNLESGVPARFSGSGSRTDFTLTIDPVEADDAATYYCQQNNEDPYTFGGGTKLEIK
T1 sequence (P21583 26-190 limits assumed): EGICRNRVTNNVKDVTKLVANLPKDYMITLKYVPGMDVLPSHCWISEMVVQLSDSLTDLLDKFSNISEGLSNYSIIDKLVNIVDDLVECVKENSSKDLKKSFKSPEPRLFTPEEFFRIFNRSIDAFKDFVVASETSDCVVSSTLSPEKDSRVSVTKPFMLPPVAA

Molecule: KIT_120_123_2: crRNA CTTCTTTCCCATACAAGGAG, SEQ ID NO: 10, targets residues 120-123 of CD117 (chemistry not given here)
KnockOut Efficiency (loss of binding of SR-1 compared to wild type cells) (CD117): 63.1%

Molecule: KIT_E73_2: crRNA AAAGTCCATTTGACAAAGCC, SEQ ID NO: 4, targets E73 of CD117 (chemistry not given here)
KnockOut Efficiency (loss of binding of SR-1 compared to wild type cells) (CD117): 25.7%

Molecule: KIT_E73_1: crRNA CTGATCCGGGCTTTGTCAAA, SEQ ID NO: 3, targets E73 of CD117 (chemistry not given here)
KnockOut Efficiency (loss of binding of SR-1 compared to wild type cells) (CD117): 10.8%

Molecule: KIT_120_123_1: crRNA GTTGTCTTCTTTCCCATACA, SEQ ID NO: 9, targets residues 120-123 of CD117 (chemistry not given here)
KnockOut Efficiency (loss of binding of SR-1 compared to wild type cells) (CD117): 64.1%

Molecule: KIT_120_123_5: crRNA CATACAAGGAGCGGTCAACA, SEQ ID NO: 13, targets residues 120-123 of CD117 (chemistry not given here)
KnockOut Efficiency (loss of binding of SR-1 compared to wild type cells) (CD117): 53.8%

Molecule: KIT_E73_5: crRNA ATGAGAATAAGCAGAATGAA, SEQ ID NO: 7, targets E73 of CD117 (chemistry not given here)
KnockOut Efficiency (loss of binding of SR-1 compared to wild type cells) (CD117): 68.5%

Molecule: KIT_E73_6: crRNA TAAGCAGAATGAATGGATCA, SEQ ID NO: 8, targets E73 of CD117 (chemistry not given here)
KnockOut Efficiency (loss of binding of SR-1 compared to wild type cells) (CD117): 60.5%

Molecule: KIT_120_123_3: crRNA TTGTTGACCGCTCCTTGTAT, SEQ ID NO: 11, targets residues 120-123 of CD117 (chemistry not given here)
KnockOut Efficiency (loss of binding of SR-1 compared to wild type cells) (CD117): 71.2%

Molecule: KIT_E73_4: crRNA TATTCTCATTCGTTTCATCC, SEQ ID NO: 6, targets E73 of CD117 (chemistry not given here)
KnockOut Efficiency (loss of binding of SR-1 compared to wild type cells) (CD117): 60.1%

Kd (antibody Refmab #1 [1]): 1 nM
Molecule: wild type CD117: wild type human CD117 (SEQ ID No. 1); recombinant D1-2-3 construct or expressed in TF-1 cells [reference compound]
EC50 Average (TF-1 cells; average of two experiments): 4.18 ± 0.04 ng/mL | EC50 Experiment #1 (TF-1 cells; [3]): 4.14 ng/mL | EC50 Experiment #2 (TF-1 cells; [3]): 4.22 ng/mL | Binding of Refmab #1 to TF-1 cells expressing the CD117 variant (Refmab #1): bound

binding to Refmab #3 compared to wild type CD117 (Refmab #3): strong decrease in binding | binding result (Biotinylated Avitag-hSCF): binds
B1: Y259G (receptor)
extracellular domains 1, 2 and 3: QPSVSPGEPSPPSIHPGKSDLIVRVGDEIRLLCTDPGFVKWTFEILDETNENKQNEWITEKAEATNTGKYTCTNKHGLSNSIYVFVRDPAKLFLVDRSLYGKEDNDTLVRCPLTDPEVTNYSLKGCQGKPLPKDLRFIPDPKAGIMIKSVKRAYHRLCLHCSVDQEGKSVLSEKFILKVRPAFKAVPVVSVSKASYLLREGEEFTVTCTIKDVSSSVYSTWKRENSQTKLQEKGNSWHHGDFNYERQATLTISSARVNDSGVFMCYANNTFGSANVTTTLEVVD
notes: not in the list MOLECULES; also called human CD117 D1-2-3 variant Y259G

binding to Refmab #1 compared to wild type (antibody Refmab #1 [2]): strong decrease in binding
B2: S123V: variant of human CD117 with substitution S123V (protein)
chain: QPSVSPGEPSPPSIHPGKSDLIVRVGDEIRLLCTDPGFVKWTFEILDETNENKQNEWITEKAEATNTGKYTCTNKHGLSNSIYVFVRDPAKLFLVDRVLYGKEDNDTLVRCPLTDPEVTNYSLKGCQGKPLPKDLRFIPDPKAGIMIKSVKRAYHRLCLHCSVDQEGKSVLSEKFILKVRPAFKAVPVVSVSKASYLLREGEEFTVTCTIKDVSSSVYSTWKRENSQTKLQEKYNSWHHGDFNYERQATLTISSARVNDSGVFMCYANNTFGSANVTTTLEVVDKG
binding to SCF (SCF): binding to SCF, albeit to a slightly lower degree | KD increase of SCF binding compared to wild type CD117 (SCF): less than three-fold; also recorded: less than four-fold

binding to Refmab #3 compared to wild type CD117 (Refmab #3): complete loss of binding
B3: S261E: variant of human CD117 with substitution S261E (protein)
chain: B2 chain with V98S, S236E

B4: K127L: variant of human CD117 with substitution K127L (protein)
chain: B2 chain with V98S, K102L
binding to SCF (SCF): binding to SCF, albeit to a slightly lower degree

B5: Y259E: variant of human CD117 with substitution Y259E (protein)
chain: B2 chain with V98S, Y234E
binding to SCF (SCF): binding to SCF, albeit to a slightly lower degree | KD increase of SCF binding compared to wild type CD117 (SCF): less than three-fold; also recorded: less than four-fold

binding to Refmab #3 compared to wild type CD117 (Refmab #3): complete loss of binding
B6: S261Q: variant of human CD117 with substitution S261Q (protein)
chain: B2 chain with V98S, S236Q

binding to Refmab #3 compared to wild type CD117 (Refmab #3): strong decrease in binding
B7: Y259A: variant of human CD117 with substitution Y259A (protein)
chain: B2 chain with V98S, Y234A

binding to Refmab #3 compared to wild type CD117 (Refmab #3): strong decrease in binding
B8: Y259P: variant of human CD117 with substitution Y259P (protein)
chain: B2 chain with V98S, Y234P
KD increase of SCF binding compared to wild type CD117 (SCF): less than three-fold; also recorded: less than four-fold
